Results taken from PubChem BioAssay AID1918955 (Molecular Pharmacology Branch, DTP, NCI, 2023).

Test system: NCI/ADR-RES complex spheroid viability
Assay: Anticancer human tumor NCI/ADR-RES cell line growth inhibition;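 also: spheroids exposed to compounds for 7 days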;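 as to viability, T/C: 100% = DMSO vehicle treated spheroids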
Details: for IC50: curve of first compound; for viability, T/C: stronger effect = lower value
Outline: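 Drug combinations with the LSD1 inhibitor iadademstat tested on tumor cells co-cultured as spheroids with endothelial cells and mesenchymal stem cells. Concentrations descended in half-log increments from clinical Cmax or 10 microM.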

[1] = second compound 0.1 µM, first compound 0.000316 µM
[2] = second compound 0.1 µM, first compound 0.001 µM
[3] = second compound 0.1 µM, first compound 0.00316 µM
[4] = second compound 0.1 µM, first compound 0.01 µM
[5] = second compound 0.1 µM, first compound 0.0316 µM
[6] = second compound 0.1 µM, first compound 0.1 µM
[7] = second compound 0.316 µM, first compound 0.000316 µM
[8] = second compound 0.316 µM, first compound 0.001 µM
[9] = second compound 0.316 µM, first compound 0.00316 µM
[10] = second compound 0.316 µM, first compound 0.01 µM
[11] = second compound 0.316 µM, first compound 0.0316 µM
[12] = second compound 0.316 µM, first compound 0.1 µM
[13] = second compound 1 µM, first compound 0.000316 µM
[14] = second compound 1 µM, first compound 0.001 µM
[15] = second compound 1 µM, first compound 0.00316 µM
[16] = second compound 1 µM, first compound 0.01 µM
[17] = second compound 1 µM, first compound 0.0316 µM
[18] = second compound 1 µM, first compound 0.1 µM
[19] = second compound 3.16 µM, first compound 0.000316 µM
[20] = second compound 3.16 µM, first compound 0.001 µM
[21] = second compound 3.16 µM, first compound 0.00316 µM
[22] = second compound 3.16 µM, first compound 0.01 µM
[23] = second compound 3.16 µM, first compound 0.0316 µM
[24] = second compound 3.16 µM, first compound 0.1 µM
[25] = second compound 10 µM, first compound 0.000316 µM
[26] = second compound 10 µM, first compound 0.001 µM
[27] = second compound 10 µM, first compound 0.00316 µM
[28] = second compound 10 µM, first compound 0.01 µM
[29] = second compound 10 µM, first compound 0.0316 µM
[30] = second compound 10 µM, first compound 0.1 µM
[31] = second compound 0.1 µM, first compound 0.00949 µM
[32] = second compound 0.1 µM, first compound 0.03 µM
[33] = second compound 0.1 µM, first compound 0.0949 µM
[34] = second compound 0.1 µM, first compound 0.3 µM
[35] = second compound 0.1 µM, first compound 0.949 µM
[36] = second compound 0.1 µM, first compound 3 µM
[37] = second compound 0.316 µM, first compound 0.00949 µM
[38] = second compound 0.316 µM, first compound 0.03 µM
[39] = second compound 0.316 µM, first compound 0.0949 µM
[40] = second compound 0.316 µM, first compound 0.3 µM
[41] = second compound 0.316 µM, first compound 0.949 µM
[42] = second compound 0.316 µM, first compound 3 µM
[43] = second compound 1 µM, first compound 0.00949 µM
[44] = second compound 1 µM, first compound 0.03 µM
[45] = second compound 1 µM, first compound 0.0949 µM
[46] = second compound 1 µM, first compound 0.3 µM
[47] = second compound 1 µM, first compound 0.949 µM
[48] = second compound 1 µM, first compound 3 µM
[49] = second compound 3.16 µM, first compound 0.00949 µM
[50] = second compound 3.16 µM, first compound 0.03 µM
[51] = second compound 3.16 µM, first compound 0.0949 µM
[52] = second compound 3.16 µM, first compound 0.3 µM
[53] = second compound 3.16 µM, first compound 0.949 µM
[54] = second compound 3.16 µM, first compound 3 µM
[55] = second compound 10 µM, first compound 0.00949 µM
[56] = second compound 10 µM, first compound 0.03 µM
[57] = second compound 10 µM, first compound 0.0949 µM
[58] = second compound 10 µM, first compound 0.3 µM
[59] = second compound 10 µM, first compound 0.949 µM
[60] = second compound 10 µM, first compound 3 µM

SMILES: CC(C)CC(NC(=O)C(Cc1ccccc1)NC(=O)c1cnccn1)B(O)O (stereo not given) + NC1CCC(NC2CC2c2ccccc2)CC1
- IC50 (second compound 0.1 µM): 10.2 nM
- IC50 (second compound 0.316 µM): 12.1 nM
- IC50 (second compound 1 µM): 9.4 nM
- IC50 (second compound 3.16 µM): 9.37 nM
- IC50 (second compound 10 µM): 6.59 nM
- viability, T/C [1]: 103%
- viability, T/C [2]: 110%
- viability, T/C [3]: 92.4%
- viability, T/C [4]: 51.5%
- viability, T/C [5]: 10.4%
- viability, T/C [6]: 4%
- viability, T/C [7]: 111%
- viability, T/C [8]: 101%
- viability, T/C [9]: 100%
- viability, T/C [10]: 58.1%
- viability, T/C [11]: 9.17%
- viability, T/C [12]: 0.68%
- viability, T/C [13]: 104%
- viability, T/C [14]: 98.4%
- viability, T/C [15]: 98.7%
- viability, T/C [16]: 46.7%
- viability, T/C [17]: 8.19%
- viability, T/C [18]: 0.58%
- viability, T/C [19]: 95.9%
- viability, T/C [20]: 97.1%
- viability, T/C [21]: 86.1%
- viability, T/C [22]: 48.3%
- viability, T/C [23]: 7.8%
- viability, T/C [24]: 0.14%
- viability, T/C [25]: 94.1%
- viability, T/C [26]: 85.4%
- viability, T/C [27]: 82.6%
- viability, T/C [28]: 31.4%
- viability, T/C [29]: 8.41%
- viability, T/C [30]: 0.25%

SMILES: CC(C)CC(NC(=O)CNC(=O)c1cc(Cl)ccc1Cl)B1OC(=O)CC(CC(=O)O)(C(=O)O)O1 (stereo not given) + NC1CCC(NC2CC2c2ccccc2)CC1
- IC50 (second compound 0.1 µM): 28.8 nM
- IC50 (second compound 0.316 µM): 28.8 nM
- IC50 (second compound 1 µM): 27.4 nM
- IC50 (second compound 3.16 µM): 20.7 nM
- IC50 (second compound 10 µM): 14.2 nM
- viability, T/C [1]: 104%
- viability, T/C [2]: 106%
- viability, T/C [3]: 107%
- viability, T/C [4]: 90.4%
- viability, T/C [5]: 46.6%
- viability, T/C [6]: 8.2%
- viability, T/C [7]: 105%
- viability, T/C [8]: 109%
- viability, T/C [9]: 103%
- viability, T/C [10]: 92%
- viability, T/C [11]: 46.2%
- viability, T/C [12]: 4.8%
- viability, T/C [13]: 100%
- viability, T/C [14]: 102%
- viability, T/C [15]: 102%
- viability, T/C [16]: 91.1%
- viability, T/C [17]: 44.2%
- viability, T/C [18]: 2.51%
- viability, T/C [19]: 92.3%
- viability, T/C [20]: 98.3%
- viability, T/C [21]: 104%
- viability, T/C [22]: 83.5%
- viability, T/C [23]: 30.1%
- viability, T/C [24]: 3.89%
- viability, T/C [25]: 91.4%
- viability, T/C [26]: 89.2%
- viability, T/C [27]: 87.8%
- viability, T/C [28]: 62.1%
- viability, T/C [29]: 21%
- viability, T/C [30]: 4.15%

SMILES: Nc1ccccc1NC(=O)c1ccc(CNC(=O)OCc2cccnc2)cc1 + NC1CCC(NC2CC2c2ccccc2)CC1
- IC50 (second compound 0.1 µM): 1170 nM
- IC50 (second compound 0.316 µM): 1340 nM
- IC50 (second compound 1 µM): 1270 nM
- IC50 (second compound 3.16 µM): 979 nM
- IC50 (second compound 10 µM): 622 nM
- viability, T/C [31]: 106%
- viability, T/C [32]: 96.8%
- viability, T/C [33]: 93.4%
- viability, T/C [34]: 80.8%
- viability, T/C [35]: 52.6%
- viability, T/C [36]: 32.7%
- viability, T/C [37]: 110%
- viability, T/C [38]: 98.6%
- viability, T/C [39]: 96.8%
- viability, T/C [40]: 93.8%
- viability, T/C [41]: 57.9%
- viability, T/C [42]: 30.5%
- viability, T/C [43]: 106%
- viability, T/C [44]: 100%
- viability, T/C [45]: 97.6%
- viability, T/C [46]: 76.5%
- viability, T/C [47]: 56.8%
- viability, T/C [48]: 32.9%
- viability, T/C [49]: 102%
- viability, T/C [50]: 100%
- viability, T/C [51]: 93%
- viability, T/C [52]: 79.6%
- viability, T/C [53]: 49.8%
- viability, T/C [54]: 30.7%
- viability, T/C [55]: 95.1%
- viability, T/C [56]: 79.8%
- viability, T/C [57]: 72.7%
- viability, T/C [58]: 65.5%
- viability, T/C [59]: 42.4%
- viability, T/C [60]: 22.2%

SMILES: O=C(C=Cc1cccc(S(=O)(=O)Nc2ccccc2)c1)NO + NC1CCC(NC2CC2c2ccccc2)CC1
- IC50 (second compound 0.1 µM): 82.2 nM
- IC50 (second compound 0.316 µM): 78.1 nM
- IC50 (second compound 1 µM): 78.3 nM
- IC50 (second compound 3.16 µM): 76.7 nM
- IC50 (second compound 10 µM): 29.8 nM
- viability, T/C [31]: 99.7%
- viability, T/C [32]: 85.7%
- viability, T/C [33]: 39.4%
- viability, T/C [34]: 24.7%
- viability, T/C [35]: 9.06%
- viability, T/C [36]: 2.6%
- viability, T/C [37]: 97.1%
- viability, T/C [38]: 85.2%
- viability, T/C [39]: 40.7%
- viability, T/C [40]: 17.5%
- viability, T/C [41]: 7.56%
- viability, T/C [42]: 2.59%
- viability, T/C [43]: 104%
- viability, T/C [44]: 82%
- viability, T/C [45]: 41.5%
- viability, T/C [46]: 19.4%
- viability, T/C [47]: 10.1%
- viability, T/C [48]: 1.53%
- viability, T/C [49]: 95.6%
- viability, T/C [50]: 78.7%
- viability, T/C [51]: 42.9%
- viability, T/C [52]: 17.8%
- viability, T/C [53]: 8.22%
- viability, T/C [54]: 5.29%
- viability, T/C [55]: 75.2%
- viability, T/C [56]: 47.6%
- viability, T/C [57]: 34.4%
- viability, T/C [58]: 16.6%
- viability, T/C [59]: 6.54%
- viability, T/C [60]: 6.09%

SMILES: O=C(c1cc(Cc2n[nH]c(=O)c3ccccc23)ccc1F)N1CCN(C(=O)C2CC2)CC1 + NC1CCC(NC2CC2c2ccccc2)CC1
- IC50 (second compound 0.1 µM): > 10000 nM
- IC50 (second compound 0.316 µM): > 10000 nM
- IC50 (second compound 1 µM): > 10000 nM
- IC50 (second compound 3.16 µM): > 10000 nM
- IC50 (second compound 10 µM): > 10000 nM
- viability, T/C [5]: 99.8%
- viability, T/C [6]: 97.5%
- viability, T/C (second compound 0.1 µM, first compound 0.316 µM): 104%
- viability, T/C (second compound 0.1 µM, first compound 1 µM): 102%
- viability, T/C (second compound 0.1 µM, first compound 3.16 µM): 102%
- viability, T/C (second compound 0.1 µM, first compound 10 µM): 87.6%
- viability, T/C [11]: 109%
- viability, T/C [12]: 101%
- viability, T/C (second compound 0.316 µM, first compound 0.316 µM): 105%
- viability, T/C (second compound 0.316 µM, first compound 1 µM): 111%
- viability, T/C (second compound 0.316 µM, first compound 3.16 µM): 96.2%
- viability, T/C (second compound 0.316 µM, first compound 10 µM): 101%
- viability, T/C [17]: 100%
- viability, T/C [18]: 108%
- viability, T/C (second compound 1 µM, first compound 0.316 µM): 112%
- viability, T/C (second compound 1 µM, first compound 1 µM): 107%
- viability, T/C (second compound 1 µM, first compound 3.16 µM): 105%
- viability, T/C (second compound 1 µM, first compound 10 µM): 91.5%
- viability, T/C [23]: 99.1%
- viability, T/C [24]: 102%
- viability, T/C (second compound 3.16 µM, first compound 0.316 µM): 97.4%
- viability, T/C (second compound 3.16 µM, first compound 1 µM): 96%
- viability, T/C (second compound 3.16 µM, first compound 3.16 µM): 104%
- viability, T/C (second compound 3.16 µM, first compound 10 µM): 87.3%
- viability, T/C [29]: 94.8%
- viability, T/C [30]: 97.4%
- viability, T/C (second compound 10 µM, first compound 0.316 µM): 93.1%
- viability, T/C (second compound 10 µM, first compound 1 µM): 88.8%
- viability, T/C (second compound 10 µM, first compound 3.16 µM): 92.5%
- viability, T/C (second compound 10 µM, first compound 10 µM): 91.7%
